We go through 19 molecules from PubChem BioAssay (NCI).

Common to all, as to assay: NCI tumour cell line growth inhibition, 48 h
Test [1] has as its system SF-295 CNS.
In test [2] the test system is NCI-H460 lung.
In test [3] the test system is SK-MEL-2 melanoma.
The test system of test [4] is HOP-62 NSCLC.
Test [5] has as its system HT29 colon.
Test [6] has as its system SK-OV-3 ovarian.
The subject of test [7] is SNB-75 CNS.
The test system of test [8] is UACC-62 melanoma.
Test [9] relates to NCI-H23 lung.
The test system of test [10] is K-562 leukemia.
Test [11] has as its system A549 NSCLC.
The subject of test [12] is RPMI-8226 leukemia.
Test [13] relates to LOX IMVI melanoma.
The subject of test [14] is HOP-92 NSCLC.
Test [15] concerns T-47D breast.
In test [16] the test system is MDA-MB-435.
Test [17] has as its system DU-145 prostate.
Test [18] deals with MCF7 breast.
Test [19] deals with BT-549 breast.
Test [20] concerns MDA-N.

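Following 48 hours of exposure in 96-well plates, responses at five concentrations were used to interpolate endpoints linearly. The concentration for full growth arrest is given as TGI.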 Bounds are passed on as bounds.

Take `COc1cc2cccc(NC(=O)c3cc(OC)c(OC)c(OC)c3Br)c2cc1OC`: the TGI came out at 40.9 µM in [1]; 36.5 µM in test [2]; 49 µM in test [3]; 42.3 µM in test [4]; 71.9 µM in [5]; 59.2 µM in test [6]. In addition, the TGI in [7] came to 74.8 µM; in test [8], 26.1 µM; in [9] it was 34.4 µM; in test [10], 46.6 µM; in test [11], 46 µM; in test [12], 17 µM.

Turning to `C=CCCCCCC(O)C(O)C/C=C\C/C=C\CC` (centres undefined), the TGI in test [1], in [2], in test [3], in test [13], in test [4] and in test [5] was above 18.8 µM each time. Moreover, the TGI in test [6], in test [7], in test [8], in test [9], in test [10] and in [14] was above 18.8 µM throughout. The TGI in test [11] and in test [12] was above 18.8 µM throughout.

As for `N#CN1CCC=C(c2cc3ccccc3[nH]2)C1`, the TGI in [1], in [2], in test [3], in test [13], in test [4] and in test [5] was above 448 µM each time. In addition, the TGI in [6] is above 448 µM; in test [8] it was above 448 µM; in test [9], above 448 µM; in test [10] it was above 448 µM; in test [14] it was 427 µM; in [11], above 448 µM. The molecule further came in with a TGI in test [12] above 448 µM.

`N#CC(NNC(=O)c1ccccc1O)c1ccccc1` (centres undefined): the TGI in test [1], in test [2], in test [3], in test [13], in test [4] and in test [5] was above 100 µM in each case. Also, the TGI in test [6] was above 100 µM; in test [7], above 100 µM; in test [8], 1.93 µM; in test [9], above 100 µM; in [10] it was above 100 µM; in [14] it was above 100 µM. Besides, the TGI in test [11] and in [12] was above 100 µM throughout.

Turning to `COc1ccccc1/C=N/N=C(\N)NO`, the TGI is 12.3 µM in [1]; above 100 µM in test [2]; above 100 µM in test [3]; above 100 µM in test [13]; 76.6 µM in test [4]; above 100 µM in test [5]. For the same molecule, the TGI in test [6] was above 100 µM; in test [8] it was 33.7 µM; in [9], above 100 µM; in test [10], above 100 µM; in [14], 65.6 µM; in test [11] it was 81.1 µM. In addition, in test [12], the TGI is above 100 µM.

With `COc1ccc(CCc2ccccc2CC(=O)O)cc1`, the TGI in test [1], in [2], in [3], in test [13], in test [5] and in test [6] was above 100 µM in each case. For the same molecule, the TGI in [7], in test [8], in test [9], in [10], in [14] and in test [11] was above 100 µM throughout. The molecule also yielded a TGI in [12] above 100 µM.

Consider `CS/C(c1ccccc1)=[N+](/C)[O-]`, for which the TGI is above 100 µM in test [1]; 99.4 µM in test [2]; above 100 µM in test [3]; above 58.2 µM in test [13]; above 100 µM in test [4]; above 100 µM in test [5]. For the same molecule, the TGI in test [6], in test [7], in test [8], in test [9], in test [10] and in [14] was above 100 µM each time. For the same molecule, the values for the TGI in test [11] and in test [12] were above 100 µM and above 87.1 µM, respectively.

As to `c1ccc2c3c([nH]c2c1)C1(CCCCC1)c1c([nH]c2ccccc12)C31CCCCC1`, the TGI in test [1] was 56.8 µM; in test [2], above 100 µM; in [3] it was 48.1 µM; in test [13] it was above 100 µM; in [4], 54.8 µM; in test [5] it was above 100 µM. The TGI in test [6] was 49.6 µM; in [7] it was 36.5 µM; in [8], 64.5 µM; in [9], above 100 µM; in [10], above 100 µM; in test [14], 46.6 µM. Further, the TGI in test [11] and in test [12] was above 100 µM in each case.

On to `CCSC(=O)/C=C1\CN(C(=O)OC(C)(C)C)C1C(=O)OC(C)(C)C` (centres undefined), for which the TGI in test [15] was 13.4 µM; in [1], 25 µM; in test [2], 23.2 µM; in test [3] it was 18.4 µM; in test [13], 3.3 µM; in test [4] it was 28.9 µM. Moreover, the TGI was above 35.4 µM in [5]; 28.2 µM in [6]; 17.4 µM in [7]; 10.6 µM in [8]; 8.7 µM in test [9]; 8.63 µM in test [16]. Besides, the TGI came to 16.3 µM in test [17]; 16.8 µM in test [18]; 4.63 µM in [10]; 8.4 µM in [14]; 22.4 µM in test [19]; 26.4 µM in test [11]. In test [12], this molecule showed a TGI of 4.77 µM.

As to `CC(C)(C)c1cc(C(=O)/C=C/c2ccc3c(c2)CCO3)cc(C(C)(C)C)c1O`, the TGI in test [15] is above 100 µM; in test [2], 1.92 µM; in test [3] it was 13.1 µM; in test [13], above 100 µM; in [4], above 93.7 µM; in test [5], above 27.2 µM. Also, the TGI was above 80.3 µM in [6]; 29.6 µM in test [8]; above 24.5 µM in test [9]; 0.91 µM in test [16]; above 100 µM in test [18]; above 100 µM in [10]. The TGI was above 100 µM in test [14], above 63.6 µM in [19], 22.9 µM in [11] and 4.45 µM in [12].

Regarding `C/C(=N\O)C(CN1CCCCC1)C(c1ccccc1)c1c(O)c2ccccc2oc1=O` (centres undefined), the TGI in test [1], in [3], in test [13], in test [4], in [5] and in test [6] was above 100 µM in each case. Moreover, the TGI in test [7] is above 100 µM; in [8] it was above 100 µM; in [9], above 100 µM; in test [10], above 10 µM; in test [14] it was above 100 µM; in [11], above 100 µM. The molecule also registered a TGI in [12] above 100 µM.

Take `CCN(CC)c1cccc2c1C1(O)CCC3(CC21)OCCCCO3` (centres undefined): the TGI in test [1], in test [2], in test [3], in [13], in test [4] and in [5] was above 100 µM each time. In addition, the TGI in test [6], in test [7], in test [9], in [10], in test [11] and in test [12] was above 100 µM throughout.

Take `Cc1ccc(S(=O)(=O)NC2=NS(=O)(=O)c3cc(C)c(Cl)cc3S2)cc1`: the TGI in [15], in [1], in test [2], in test [3], in test [13] and in [4] was above 100 µM throughout. Moreover, the TGI in test [5], in test [6], in test [7], in test [8], in [9] and in [16] was above 100 µM throughout. Further, the TGI in test [17], in [18], in test [10], in test [14], in test [19] and in [11] was above 100 µM throughout. For the same molecule, in test [12], the TGI was above 100 µM.

For the molecule `CC1=NN(C(=O)c2ccc(Cl)cc2)C(=O)/C1=C/c1ccc(O)cc1`, the TGI in test [1], in test [2], in [3], in [13], in test [4] and in test [5] was above 100 µM throughout. The TGI in test [6], in test [8], in test [9], in test [10], in test [14] and in [11] was above 100 µM each time. The TGI in [12] was above 100 µM.

For `COC1=CC(=O)[C@]2(C)[C@H](C1=O)C(C)[C@H]2c1ccccc1` (some centres undefined), the TGI in [1], in test [2], in test [3], in test [13], in test [4] and in test [5] was above 100 µM in each case. Further, the TGI in [6], in test [7], in [8], in test [9], in [10] and in test [14] was above 100 µM in each case. Also, the TGI in test [11] and in [12] was above 100 µM each time.

Turning to `CC(C)(c1ccc(OC#N)cc1)c1ccc(OC#N)cc1`, the TGI was above 100 µM in [1]; above 82.4 µM in test [2]; above 100 µM in test [3]; above 70.8 µM in [13]; above 100 µM in [4]; above 100 µM in test [5]. For the same molecule, the TGI in test [6] was above 100 µM; in test [7], above 94.7 µM; in test [8], above 100 µM; in test [9], above 100 µM; in test [10], above 100 µM; in test [14], above 100 µM. Also, the TGI is above 100 µM in [11] and above 72.5 µM in test [12].

On to `Cc1ccc(S(=O)(=O)c2c3[nH]c4ccccc4nc3n3c2nc2ccccc23)cc1`, for which the TGI in test [2], in test [3], in [13], in [4], in test [6] and in test [7] was above 100 µM in each case. Further, the TGI in [8], in test [9], in [10], in [14], in test [11] and in test [12] was above 100 µM throughout.

`O=S1c2ccccc2SCSc2ccccc21`: the TGI in test [15], in [1], in test [2], in test [3], in test [4] and in test [5] was above 100 µM in each case. Besides, the TGI in test [6], in test [20], in test [8], in test [9], in test [17] and in test [18] was above 100 µM in each case. In addition, the TGI is 75.8 µM in [10], above 100 µM in test [14], above 100 µM in test [11] and 70.1 µM in test [12].

As to `O=Cc1ccc(-c2cccc([N+](=O)[O-])c2)s1`, the TGI in test [15], in test [1], in [2], in test [3], in test [13] and in [4] was above 100 µM throughout. The TGI in test [5], in test [6], in test [7], in test [8], in test [9] and in test [16] was above 100 µM throughout. Moreover, the TGI in test [17], in [18], in test [10], in test [14], in test [19] and in test [11] was above 100 µM throughout. In [12], this molecule registered a TGI above 100 µM.
